Laboratory results from the supplement of paper PMC10883282.

What was measured:
Assay in all cases: relative viability vs DMSO control (72 h) (fraction); higher = more viable cells
[1] = system: G401
Procedure, shortened: (§1)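 Relative viability was measured with ATPLite and expressed as percent growth, averaged across up to triplicate wells. Sarcoma cell lines had been seeded in 384-well plates to reach 80–90% confluence, dosed after 24 h, and incubated 72 h at 37 °C, 5% CO2. All data were rescaled on a scale where 1 is full and 0 is none.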

[2] = system: HT1080
Procedure, shortened: as §1

[3] = system: KHOS-240S
Procedure, shortened: as §1

[4] = system: MES-SA
Procedure, shortened: as §1

[5] = system: RD-ES
Procedure, shortened: as §1

[6] = system: RD
Procedure, shortened: as §1

[7] = system: SK-ES-1
Procedure, shortened: as §1

[8] = system: SK-LMS-1
Procedure, shortened: as §1

[9] = system: SW1353
Procedure, shortened: as §1

[10] = system: SW982
Procedure, shortened: as §1

[11] = system: SYO-1
Procedure, shortened: as §1

[12] = system: VA-ES-BJ
Procedure, shortened: as §1

NC(=O)c1cccc2cn(-c3ccc([C@@H]4CCCNC4)cc3)nc12 [Niraparib]
Conditions	relative viability
[1], 0.00017 µM	0.962
[1], 0.00051 µM	0.988
[1], 0.00152 µM	1.01
[1], 0.00457 µM	0.9908
[1], 0.01372 µM	0.993
[1], 0.04115 µM	1.03
[1], 0.1235 µM	0.967
[1], 0.3704 µM	0.97
[1], 1.111 µM	0.93
[1], 3.333 µM	0.929
[1], 10 µM	0.852
[2], 0.00017 µM	1.06
[2], 0.00051 µM	1.05
[2], 0.00152 µM	1.01
[2], 0.00457 µM	1.04
[2], 0.01372 µM	1.01
[2], 0.04115 µM	1.01
[2], 0.1235 µM	1.041
[2], 0.3704 µM	1.02
[2], 1.111 µM	1.09
[2], 3.333 µM	1.09
[2], 10 µM	1.03
[3], 0.00017 µM	1.06
[3], 0.00051 µM	1.08
[3], 0.00152 µM	1.07
[3], 0.00457 µM	1.07
[3], 0.01372 µM	1.06
[3], 0.04115 µM	1.07
[3], 0.1235 µM	1.06
[3], 0.3704 µM	1.06
[3], 1.111 µM	1.03
[3], 3.333 µM	1.01
[3], 10 µM	0.877
[4], 0.00017 µM	0.9156
[4], 0.00051 µM	0.898
[4], 0.00152 µM	0.868
[4], 0.00457 µM	0.918
[4], 0.01372 µM	0.882
[4], 0.04115 µM	0.893
[4], 0.1235 µM	0.876
[4], 0.3704 µM	0.8654
[4], 1.111 µM	0.824
[4], 3.333 µM	0.774
[4], 10 µM	0.598
[5], 0.00017 µM	0.997
[5], 0.00051 µM	1.01
[5], 0.00152 µM	0.9697
[5], 0.00457 µM	0.988
[5], 0.01372 µM	0.966
[5], 0.04115 µM	0.966
[5], 0.1235 µM	0.962
[5], 0.3704 µM	0.899
[5], 1.111 µM	0.783
[5], 3.333 µM	0.504
[5], 10 µM	0.0364
[6], 0.00017 µM	1.06
[6], 0.00051 µM	1.09
[6], 0.00152 µM	1.1
[6], 0.00457 µM	1.117
[6], 0.01372 µM	1.09
[6], 0.04115 µM	1.12
[6], 0.1235 µM	1.08
[6], 0.3704 µM	1.05
[6], 1.111 µM	1.006
[6], 3.333 µM	0.899
[6], 10 µM	0.784
[7], 0.00017 µM	1.02
[7], 0.00051 µM	1.02
[7], 0.00152 µM	1.01
[7], 0.00457 µM	1.01
[7], 0.01372 µM	1.02
[7], 0.04115 µM	0.975
[7], 0.1235 µM	0.8976
[7], 0.3704 µM	0.822
[7], 1.111 µM	0.525
[7], 3.333 µM	0.311
[7], 10 µM	0.0804
[8], 0.00017 µM	1.08
[8], 0.00051 µM	1.12
[8], 0.00152 µM	1.1
[8], 0.00457 µM	1.12
[8], 0.01372 µM	1.12
[8], 0.04115 µM	1.13
[8], 0.1235 µM	1.12
[8], 0.3704 µM	1.1
[8], 1.111 µM	1.09
[8], 3.333 µM	1.03
[8], 10 µM	0.966
[9], 0.00017 µM	0.976
[9], 0.00051 µM	0.981
[9], 0.00152 µM	0.969
[9], 0.00457 µM	0.958
[9], 0.01372 µM	0.927
[9], 0.04115 µM	0.965
[9], 0.1235 µM	0.956
[9], 0.3704 µM	0.964
[9], 1.111 µM	0.933
[9], 3.333 µM	0.942
[9], 10 µM	0.904
[10], 0.00017 µM	1.05
[10], 0.00051 µM	1.04
[10], 0.00152 µM	1.05
[10], 0.00457 µM	1.02
[10], 0.01372 µM	1.06
[10], 0.04115 µM	1.07
[10], 0.1235 µM	1.06
[10], 0.3704 µM	1.01
[10], 1.111 µM	0.926
[10], 3.333 µM	0.791
[10], 10 µM	0.635
[11], 0.00017 µM	0.951
[11], 0.00051 µM	0.965
[11], 0.00152 µM	0.95
[11], 0.00457 µM	0.946
[11], 0.01372 µM	0.927
[11], 0.04115 µM	0.861
[11], 0.1235 µM	0.832
[11], 0.3704 µM	0.765
[11], 1.111 µM	0.664
[11], 3.333 µM	0.522
[11], 10 µM	0.29
[12], 0.00017 µM	0.985
[12], 0.00051 µM	0.995
[12], 0.00152 µM	0.976
[12], 0.00457 µM	0.96
[12], 0.01372 µM	0.99
[12], 0.04115 µM	1.01
[12], 0.1235 µM	0.983
[12], 0.3704 µM	0.947
[12], 1.111 µM	0.915
[12], 3.333 µM	0.873
[12], 10 µM	0.708
